Legend:
[1] = Antioxidant capacity, radical scavenging ability by DPPH (Blois method); details: absorbance at 517 nm
Method: The antioxidant capacity of the novel compounds was measured by using a Blois method of measuring radical scavenging ability by DPPH which was widely known. A solution of DPPH by concentration was prepared in ethanol, and the initial absorbance was measured at 517 nm, and the absorbance over time was measured by adding a solution of the novel compound and the DPPH solution. The antioxidant capacity was expressed in % and an IC50 value was obtained using a calculation program.

mushroom tyrosinase = assay: Inhibitory effect on tyrosinase; assay type: biochemical; details: L-tyrosine substrate, pH 6.5, 37° C., 30 minutes; read-out: Inhibition of tyrosinase
Method: The inhibitory effect on tyrosinase related to skin whitening and melanin formation was measured using the following experimental method. 10 μL of each sample solution at a different concentration and 20 μL of mushroom tyrosinase in a phosphate buffer (pH 6.5) were added to a 96-well microplate and added with 170 μL of a mixed solution in which a 1 mM L-tyrosine solution, a 50 mM potassium phosphate buffer (pH 6.5) and distilled water were contained in a ratio of 10:10:9. Samples dissolved in DMSO were diluted 30 times with distilled water and used. After incubation at 37° C. for 30 minutes, the absorbance of the reaction solution was measured at 490 nm using a GENios microplate reader (Tecan Austria GmbH, Austria). The inhibition degree of tyrosinase by the addition of the sample was expressed as a 50% inhibition rate (IC50).

[2] = test system: cortex culture containing neurons and glia; assay: Brain cell protection in apoptosis induced by oxygen-glucose deprivation (OGD)/reoxygenation, LDH release; assay type: cell-based, rat; details: for protective effect on brain cells (apoptosis, % LDH release): OGD then 24 hours normoxic, 6 concentrations, FIG. 1
Method: A […] cortex culture medium containing neurons and glia was obtained from fetal rats during the gestation period of 17 to 18 days. That is, an embryonic tissue was extracted from a pregnant Sprague-Dawley and transferred to a Hanks Balanced Salt solution (Gibco) cooled with ice. The cortical brain tissue was sterile and thinly dissected and stored in cold HBSS before digestion with 0.0125% trypsin. The isolated cells were placed in a 96 well plate coated with poly-L-lysine (1 mg/ml, Sigma-Aldrich) in a Dulbecco's modified eagle medium (Gibco) containing 10% iron-supplemented fetal calf serum (Hyclone) and 1% antibiotic/antimycotic (Gibco) at 37° C. at a seeding density of 50,000 cells/well. Then, after attaching the culture medium overnight in a 37° C. incubator containing 5% CO2 and atmospheric oxygen, at the next day, the medium was replaced with a warm Neurobasal A medium (Gibco) containing 0.5 mmol/L of L-glutamine (Gibco) and supplemented with 1% B27, N2 and antibiotics/antimycotic (Gibco). In the culture for 14 to 16 days, half of the medium was changed every 4 days. After 14 days of cell culture, the culture medium was replaced with a vehicle (0.1% DMSO or EtOH) or an oxygen-free-glucose Neurobasal A containing an experimental substance (RA1, naringenin or lipoic acid) at 6 concentrations. After oxygen-glucose deprivation (OGD), the same volume of Neurobasal A with the same novel substance concentration was added and transferred to a normoxic condition (5% CO2 and atmospheric oxygen) state for 24 hours. Cellular activity was evaluated by measuring LDH release of damaged cells. The effects of lipoic acid, naringenin, and the novel substance RA1 on apoptosis (% LDH release) following ischemia/reoxygenation-reperfusion (I/R) were performed in the in vitro cell culture.

cerebral infarction site = assay: Transient middle cerebral artery occlusion (t-MCAO), administration immediately before artery occlusion; assay type: in vivo, Sprague-Dawley rats; details: for size of the cerebral infarction site compared to the vehicle: 30 min occlusion, 5 h 30 min reperfusion, FIG. 3(A); for size of the cerebral infarction site, dependence on concentration: FIG. 3(B) and (C)
Method: As a research model for cerebral infarction, transient middle cerebral artery occlusion (t-MCAO) in animals (rats) was used to examine the infarct size of the cerebral infarction site and the degree of its protective action. First, in an animal model in which the middle cerebral artery of Sprague-Dawley rats (300 to 350 g; Charles River, Montreal, PQ, CAN) was closed for 30 minutes to create a cerebral infarction and then reperfused for 5 hours and 30 minutes (t-MCAO), naringenin and RA1 (VANL-100) were administered immediately before artery occlusion and compared with a case of administration of a vehicle.

[3] = test system: cortex culture containing neurons and glia; assay: Total antioxidant capacity assay after OGD and I/R (Antioxidant Assay Kit); assay type: cell-based, rat; details: FIG. 2
Method: Several groups of plates were subjected to the OGD (oxygen-glucose deprivation) and I/R (ischemia-reperfusion), and the total antioxidant capacity was measured using a general commercial instrument (Antioxidant Assay Kit, Sigma-Aldrich). The average value of the three experiments was obtained and the antioxidant capacity was expressed in […].

SMILES | Antioxidant capacity (%) [1] [%] | IC50 (mushroom tyrosinase) [µM] | other results
O=C(CCCCC1CCSS1)OCCOCCOCCOc1cc(O)c2c(c1)OC(c1ccc(O)cc1)CC2=O (stereo not shown) [RA6, 2-(2-(2-((5-hydroxy-2-(4-hydroxyphenyl)-4-oxochroman-7-yl)oxy)ethoxy)ethoxy)ethyl 5-(1,2-dithiolan-3-yl)pentanoate] | 14.6 | 350 | 
O=C(CCCCC1CCSS1)OCCOCCOCCOCCOc1cc(O)c2c(c1)OC(c1ccc(O)cc1)CC2=O (stereo not shown) [RA7, 2-(2-(2-(2-((5-hydroxy-2-(4-hydroxyphenyl)-4-oxochroman-7-yl)oxy)ethoxy)ethoxy)ethoxy)ethyl 5-(1,2-dithiolan-3-yl)pentanoate] |  | > 350 | 
O=C(CCCCC1CCSS1)OCCOc1cc(O)c2c(c1)OC(c1ccc(O)cc1)CC2=O (stereo not shown) [RA4, 2-((5-hydroxy-2-(4-hydroxyphenyl)-4-oxochroman-7-yl)oxy)ethyl 5-(1,2-dithiolan-3-yl)pentanoate] | 22 | 260 | 
O=C(CCCCC1CCSS1)OCCOCCOc1cc(O)c2c(c1)OC(c1ccc(O)cc1)CC2=O (stereo not shown) [RA5, 2-(2-((5-hydroxy-2-(4-hydroxyphenyl)-4-oxochroman-7-yl)oxy)ethoxy) ethyl 5-(1,2-dithiolan-3-yl)pentanoate] | 28.5 | 225 | 
O=C1C[C@@H](c2ccc(O)cc2)Oc2cc(O)cc(O)c21 [Naringenin] | 58.5 | 82 | protective effect on brain cells (apoptosis, % LDH release) [2]: slight effect at one concentration; size of the cerebral infarction site compared to the vehicle (cerebral infarction site): significantly reduced; size of the cerebral infarction site, dependence on concentration (cerebral infarction site): reduced the size of the cerebral infarction site depending on a concentration
O=C(CCCCC1CCSS1)Oc1ccc(C2CC(=O)c3c(O)cc(O)cc3O2)cc1 (stereo not shown) [RA2, 4-(5,7-dihydroxy-4-oxochroman-2-yl)phenyl 5-(1,2-dithiolan-3-yl)pentanoate] | 77 | 58 | 
O=C(O)CCCC[C@@H]1CCSS1 (racemic) [Lipoic acid] | 66.8 | 44 | protective effect on brain cells (apoptosis, % LDH release) [2]: hardly showed a protective effect; total antioxidant capacity ([3]; 0.25 and 25 ummol/L): no antioxidant effect; total antioxidant capacity ([3]; high concentrations of 125 and 1250 ummol/L): great antioxidant capacity
O=C(CCCCC1CCSS1)OCCOCCOCCOCCOCCOc1cc(O)c2c(c1)OC(c1ccc(O)cc1)CC2=O (stereo not shown) [RA8, 14-((5-hydroxy-2-(4-hydroxyphenyl)-4-oxochroman-7-yl)oxy)-3,6,9,12-tetraoxatetradecyl 5-(1,2-dithiolan-3-yl)pentanoate] | 11.5 | > 350 | 
O=C(CCCCC1CCSS1)Oc1ccc(C2CC(=O)c3c(O)cc(OC(=O)CCCCC4CCSS4)cc3O2)cc1 (stereo not shown) [RA3, 4-(7-((5-(1,2-dithiolan-3-yl)pentanoyl)oxy)-5-hydroxy-4-oxochroman-2-yl)phenyl 5-(1,2-dithiolan-3-yl)pentanoate] | 12.4 | 133 | 
O=c1cc(CO)occ1O [Kojic acid, reference compound] | 28 |  | 
O=C(CCCCC1CCSS1)OCCOCCOCCOCCOCCOCCOc1cc(O)c2c(c1)OC(c1ccc(O)cc1)CC2=O (stereo not shown) [RA9, 17-((5-hydroxy-2-(4-hydroxyphenyl)-4-oxochroman-7-yl)oxy)-3,6,9,12,15-pentaoxaheptadecyl 5-(1,2-dithiolan-3-yl)pentanoate] | 24 | > 350 | 
OC[C@H]1O[C@@H](Oc2ccc(O)cc2)[C@H](O)[C@@H](O)[C@@H]1O [Arbutin, reference compound] | 36 | 266 | 
O=C(CCCCC1CCSS1)Oc1cc(O)c2c(c1)OC(c1ccc(O)cc1)CC2=O (stereo not shown) [RA1, 5-hydroxy-2-(4-hydroxyphenyl)-4-oxochroman-7-yl 5-(1,2-dithiolan-3-yl)pentanoate] |  | 32 | strength of protective effect on brain cells at a very low concentration ([2]; FIG. 1D, comparison with lipoic acid and naringenin): about 100 times; protective effect on brain cells (apoptosis, % LDH release) [2]: very strong protective effect; total antioxidant capacity ([3]; 2.5 to 1250 ummol/L): strong protective effect; size of the cerebral infarction site compared to the vehicle (cerebral infarction site): significantly reduced; size of the cerebral infarction site, dependence on concentration (cerebral infarction site): reduced the size of the cerebral infarction site depending on a concentration; effective concentration, times lower than naringenin (10 mg/kg) (cerebral infarction site; RA1 1×10^−3 mg/kg against naringenin 10 mg/kg): 10,000 times; size of the cerebral infarction site (cerebral infarction site; RA1 at 1×10^−3 mg/kg): strongly reduced; protective effect on brain cells, times stronger than naringenin or lipoic acid (cerebral infarction site; animal brain infarction model, very low concentration): ~10,000 times

Reference: patent US20210260199A1, “NOVEL NARINGENIN/LIPOIC ACID CONJUGATE COMPOUND AND USE THEREOF” (priority 2018, published 2021)
